Laboratory results taken from patent US20080255121A1, “Combination Drug for Treating Autoimmune Disease” (DAINIPPON SUMITOMO PHARMA CO., LTD., priority 2004, published 2008).
“Also recorded” adds a separate entry of the source.

Columns and labels:
cyclin D1 = assay: Expression of cyclin D1 in bFGF stimulated fibroblasts (Western blotting); assay type: cell-based, mouse; details: Compound (I) 1.25 to 20 μM, KN-93 5 to 20 μM; L929 cells; FIG. 18
Experimental: Effects of Compound (I) and KN-93 on effect on the expression of cyclin D1 and the phosphorylation of Akt when fibroblasts were stimulated with basic fibroblast growth factor (bFGF) were evaluated.
L929 cells (mouse fibroblast cell line) were cultured in MEM-Earl medium (E-MEM: GIBCO, Inc.) containing 10% fetal bovine serum and subjected to the experiment. The cells were suspended in a serum-free E-MEM and cultured for 72 hours. An E-MEM medium containing the test substance was added and incubated for 1 hour, and an E-MEM medium containing recombinant human FGF basic (bFGF) as a stimulant was added and further incubated. The cells were lysed in a RIPA buffer and a total cell lysate was obtained. After performing SDS-PAGE, proteins were transferred onto a PVDF membrane and western blotting was performed with anti-cyclin antibody or anti-Akt antibody (both available from Santa Cruz, Inc.).

CaMKIIα derived from rat = target: T1, CaMKIIα derived from rat (Rattus norvegicus, UniProt P11275); assay: Examination of CaMKII inhibitory activity (1), phosphorylation of Autocamtide-2; assay type: biochemical
T1 construct: purchased Santa Cruz, Inc
T1 sequence (P11275 whole entry): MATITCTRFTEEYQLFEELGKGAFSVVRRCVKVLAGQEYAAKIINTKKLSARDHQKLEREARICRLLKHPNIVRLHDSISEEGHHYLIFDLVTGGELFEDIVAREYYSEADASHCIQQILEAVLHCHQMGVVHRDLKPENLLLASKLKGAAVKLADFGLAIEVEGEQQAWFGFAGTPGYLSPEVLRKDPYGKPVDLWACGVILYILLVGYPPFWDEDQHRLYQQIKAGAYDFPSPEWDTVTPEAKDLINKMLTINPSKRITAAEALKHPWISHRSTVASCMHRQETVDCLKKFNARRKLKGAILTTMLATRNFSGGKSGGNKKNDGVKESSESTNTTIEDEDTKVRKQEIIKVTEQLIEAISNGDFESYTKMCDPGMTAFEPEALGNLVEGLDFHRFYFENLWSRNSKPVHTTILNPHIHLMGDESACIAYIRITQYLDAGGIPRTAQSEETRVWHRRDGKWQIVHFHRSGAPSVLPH
Experimental: Test substances were dissolved in DMSO and diluted to various concentrations with a buffer solution (50 mM Tris-HCl: pH 7.5, 10 mM MgCl2, 1 mM Dithiothreitol (DTT)) (all of them are available from Nacalai Tesque, Inc.) for CaMKII reaction. CaMKIIα (final concentration 0.75 μg/ml) (Santa Cruz, Inc.) derived from rat was mixed with Autocamtide-2® (40 μM) (CALBIOCHEM Company) dissolved in CaMKII reaction buffer solution in the presence of the test substance and with CaMKII activation buffer solution (1 mMCaCl2, 1 μM calmodulin) (Nacalai Tesque, Inc.) and the reaction was started by further adding ATP (50 μM) (Nacalai Tesque, Inc.). The reaction was performed at 30° C. for five minutes and then SDS-PAGE sample buffer solution was added and the reaction was terminated by boiling for five minutes. Proteins in the reaction mixture were separated by 15% SDS-PAGE and blotted onto a PVDF membrane. Phosphorus taken in by Autocamtide-2 was reacted with an anti-phosphorylated serine/threonine antibody (Santa Cruz, Inc.) and quantified by ECL system (Amersham, Inc.) and NIH Image (downloadable from http://rsb.info.nih.gov/nih-image/).

IκBα = assay: Degradation of IκBα in stimulated T-lymphocytes (Western blotting); assay type: cell-based, mouse; details: Compound (I) 30 μM, KN-93 10 μM; EL-4 cells; FIG. 17
Experimental: Effects of Compound (I) and KN-93 on the degradation of IκBα when T-lymphocytes were stimulated with Phorbol 12-myristate 13-acetate (PMA) and Calcium Ionophore A23187 were evaluated.
EL-4 cells (mouse T-lymphocyte cell line) were cultured in Dulbecco's Modified Eagle Medium (DMEM: GIBCO, Inc.) containing 10% fetal bovine serum and subjected to the experiments. Cells subconfluently multiplied were collected by centrifugation and dispensed into Eppendorf tubes to be contained at 5×10^6 cells/tube. After Compound (I) (final 30 μM) or KN-93 (final 10 μM) was added and preincubated at 37° C. in a water bath, stimulation by PMA (final 125 ng/ml) and A23187 (final 1 μg/ml) was performed (total volume 500 μl). After incubated for 15 minutes or 30 minutes after the stimulation, 1 ml of an ice cold stop solution (1×PBS, 1 mM Na3VO4, 5 mM EDTA) was added to terminate the reaction. After centrifugation and rinsing, it was dissolved in TNE buffer (50 mMTris-HCl, 1% NP-40, 20 mM EDTA, 100 μg/ml PMSF, 30 μl/ml Aprotinin, 1 mM Na3VO4, 5 mM NaF, 12 mM β-glycerophosphate). After performing 12% SDS-PAGE, proteins were transferred onto a PVDF membrane and western blotting was performed with anti-IκBα antibody (C-21, Santa Cruz, Inc.).

SW982 cells = assay: Proliferation of human synovial cells (Alamar Blue); assay type: cell-based; details: Compound (I) 1 to 30 μM, KN-93 1 to 30 μM; FIG. 4
Experimental: Effects of Compound (I) and KN-93 on the proliferation of SW982 cells (human synovial cell line) were evaluated.
SW982 cells (human synovial cell line; obtained from ATCC) was cultured in a FCS (product of SIGMA, Inc.) containing DMEM medium (product of GIBCO, Inc.) and subjected to the experiment. SW982 was disseminated in 96-well flat bottom plate in the absence of serum in a ratio of 4×10^4 cells/well. Compounds were added at the same time of the dissemination of the cells and incubated at 200 μl cells/well. 20 μl of Alamar Blue® was added to each well (BIOSOURCE, Inc.) after 18 hours and incubated for further six hours and the absorbance of each well was measured with a microplate reader. The absorbance was measured at two wavelengths of 570 nm and 600 nm.

osteoclasts = assay: Formation of osteoclasts from cells of collagen arthritis mouse leg (TRAP staining); assay type: cell-based; details: Compound (I) 0.5 to 20 μM, KN-93 0.3 to 5 μM; nine days; FIG. 5
Experimental: Effects of Compound (I) and KN-93 on the formation of osteoclasts were evaluated.
A mouse leg affected with developed collagen arthritis was removed and treated in an α-MEM culture medium (GIBCO, Inc.) containing 10% fetal bovine serum in the presence of dispase (Godo Shuzo) and collagenase S1 (Nitta Gelatin Inc.) at 37° C. for five to six hours and monodisperse cell suspended liquid was collected. This sample was centrifuged, rinsed by resuspension and subjected to the experiment. The cells were disseminated in 96-well plate in a ratio of 2×10^4 cells/well, an α-MEM medium containing the test compound was added thereto and incubated for nine days. After the incubation, osteoclasts were stained with a kit (Sigma, Inc.) for TRAP staining and the number of the osteoclasts per well was measured by microscopic observation. The TRAP staining was carried out in accordance with instructions attached to the kit.

J774A.1 cells = assay: IL-6 production when macrophages were stimulated with LPS; assay type: cell-based, mouse; details: Compound (I) 1 to 30 μM, KN-93 1 to 3 μM; 24 hours; FIG. 2
Experimental: Effects of Compound (I) and KN-93 on IL-6 production when macrophages were stimulated with lipopolysaccharide (LPS) were evaluated.
J774A.1 cells (mouse macrophage cell line) were cultured in Dulbecco's Modified Eagle Medium (DMEM: GIBCO, Inc.) containing 10% fetal bovine serum and subjected to the experiment. The cells were disseminated in 96-well plate in a ratio of 5×10^4 cells/well and a DMEM medium containing the test substance and a DMEM medium containing LPS as a stimulant were added and incubated for 24 hours. The concentration was adjusted so that the final concentrations of the test substances and stimulants were 1 to 30 μM for Compound (I), 1 to 3 μM for KN-93 and 1 μg/ml for LPS. The plate was centrifuged after incubation and the supernatant was collected with micropipette. The concentration of IL-6 in the supernatant was quantified by Enzyme-linked Immunosorbent Assay (ELISA) method. The quantitative method was carried out in accordance with the instructions attached to the kit (MOUSE IL-6 Immunoassay, R & D Systems).

Compound	enhanced expression of cyclin D1 (cyclin D1)	Inhibition rate (%) (CaMKIIα derived from rat; Concentration 0.1 μm)	Inhibition rate (%) (CaMKIIα derived from rat; Concentration 1 μm)	Inhibition rate (%) (CaMKIIα derived from rat; Concentration 10 μm)	degradation of IκBα (IκBα)	proliferation of SW982 cells (SW982 cells)	formation of osteoclasts (osteoclasts)	production of IL-6 (J774A.1 cells)
C[C@@H](c1ccc(-c2ccccc2)c(F)c1)c1cc(/N=C(/N)N2CCOCC2)on1 [Compound (I), 3-[(1S)-1-(2-fluorobiphenyl-4-yl)ethyl]-5-{[amino(morpholin-4-yl)methylene]amino}isoxazole]	suppressed the enhanced expression of cyclin D1	39	47	85	suppressed the degradation of IκBα	dose-dependently suppressed the proliferation of human synovial cells; also recorded: almost completely suppressed	dose-dependently suppressed the formation of osteoclasts	suppressed production of IL-6 dose-dependently
COc1ccc(S(=O)(=O)N(CCO)c2ccccc2CN(C)C/C=C/c2ccc(Cl)cc2)cc1 [KN-93, N-(2-[N-[4-chlorocinnamyl]-N-methylaminomethyl]phenyl)-N-(2-hydroxyethyl)-4-methoxybenzenesulfonamide, reference compound]	suppressed the enhanced expression of cyclin D1	25	58	77	suppressed the degradation of IκBα	dose-dependently suppressed the proliferation of human synovial cells; also recorded: almost completely suppressed	dose-dependently suppressed the formation of osteoclasts	suppressed production of IL-6 dose-dependently
